In brackets after ≈: the same amount, converted by molar mass. Read-outs that look alike come from different tables or passages of the source.
Tests used:
HeLa S3 cells = test: MIC value against HeLa S3 cells (microplate method); type: cell-based; settings: Homo sapiens, 96 h, 2×10^4 cells/ml, 4 days, Giemsa staining
Description: (§1) a. MIC value against HeLa S3 cells and Ehrlich cells (microplate method) Number of cells: 2×10^4 cells/ml Culture medium: Eagle's MEM+20% calf embryonic serum Culture time: 4 days Judgement: Giemsa staining

Ehrlich cells = test: MIC value against Ehrlich cells (microplate method); type: cell-based; settings: 96 h, 2×10^4 cells/ml, 4 days, Giemsa staining
Description: as §1

[1] = system: Ehrlich ascites carcinoma cells; test: Effect on Ehrlich carcinoma (ii): subcutaneous inoculation at inguinal region, mean tumor weight; type: in vivo, ICR-strain mice; settings: 250 mg/kg, orally, once a day for 5 days, judgement day 15
Experimental: (ii) Ehrlich ascites carcinoma cells (4×10^6 cells/head) were inoculated subcutaneously at the inguinal region into ICR-strain mice (female, 6 to 7 weeks old, each group consisting of 5 or 4 mice), and after 24 hours, the intraperitaneal or oral administration of a test drug was started and effected once a day for 5 days. The effect thereof was judged from the mean weight of tumor on the 13th or 15th day, respectively.
The test drug was used in the form of a solution or suspension in a saline solution or a 0.3% carboxymethyl cellulose-containing saline solution. [formula]

[2] = system: Ehrlich ascites carcinoma cells; test: Effect on Ehrlich carcinoma (iii): subcutaneous inoculation at right armpit, mean tumor weight; type: in vivo, ICR-strain mice; settings: once a day for 7 days, 14th day
Experimental: (iii) Ehrlich ascites carcinoma cells (4×10^6 cells/head) were inoculated subcutaneously at the right armpit region into ICR-strain mice (female, 7 weeks old, each group consisting of 6 or 7 mice), and after 24 hours, the oral administration or subcutaneous administration at the dorsal region of a test drug was started, and effected once a day for 7 days. The effect thereof was judged from the mean weight of the tumor on the 14th day. The test drug was used in the form of a solution or suspension in a saline solution or a 0.3% carboxymethyl cellulose-containing saline solution.
T/C was calculated in the same manner as in above (ii).

[3] = system: Sarcoma 180 ascites cells; test: Effect on Sarcoma 180 carcinoma: intraperitoneal inoculation, mean survival days; type: in vivo, ICR-strain mice; settings: once a day for 7 days
Experimental: Sarcoma 180 ascites cells (1×10^6 cells/head) were inocualted intraperitoneally into ICR-strain mice (female, 6 weeks old, each group consisting of 4 or 5 mice), and after 24 hours, the intraperitoneal administration of a test drug was started, and effected once a day for 7 days. The effect thereof was judged from the mean survival days. The test drug was used in the form of a solution or suspension in a saline solution or a 0.3% carboxymethyl cellulose-containing saline solution. [formula]

L-1210 ascites cells [4] = test: Effect on L-1210 leukemia (i): intraperitoneal inoculation, mean survival days; type: in vivo, BDF1-strain mice
Experimental: (§2) (i) L-1210 ascites cells (1×10^5 cells/head) were inoculated intraperitoneally into BDF1 -strain mice (female, 6 weeks old, each group consisting of 4 mice), and after 24 hours, the intraperitoneal administration of a test drug was started and effected once a day. The effect thereof was judged from the mean survival days. The test drug was used in the form of a solution or suspension in a saline solution or a 0.3% carboxymethyl cellulose-containing saline solution.
T/C was calculated in the same manner as in above b (i).

P-388 ascites cells [5] = test: Effect on P-388 leukemia (ii): subcutaneous inoculation, mean tumor weight; type: in vivo, BDF1-strain mice; settings: oral, once a day for 7 days, 11th day
Experimental: (ii) P-388 ascites cells (1×10^6 cells/head) were inoculated subcutaneously at the right armpit into BDF1 -strain mice (male, 7 weeks old, each group consisting of 8 mice), and after 24 hours, the oral administration of a test drug was started, and effected once a day for 7 days. The effect thereof was judged from the mean weight of the tumor at the 11th day. The test drug was used in the form of a suspension or solution in a 0.3% carboxymethyl cellulose-containing saline solution or a dimethylsulfoxide-propylene glycolphosphate buffer (1:2:1) mixture. T/C was calculated in the same manner as in above b(ii).

B-16 melanoma cells = test: Effect on B-16 melanoma: subcutaneous inoculation, mean tumor weight; type: in vivo, BDF1-strain mice
Experimental: B-16 melanoma cells (1×10^6 cells/head) were inoculated subcutaneously at the right armpit region into BDF1 -strain mice (male, 7 weeks old, each group consisting of 8 mice), and after 24 hours, the oral administration or subcutaneous administration at the […] […] The test drug was used in the form of a suspension or solution in a 0.3% carboxymethyl cellulose-containing saline solution or dimethylsulfoxide-propylene glycol (1:1) mixture. T/C was calculated in the same manner as in above b(ii).

Acute toxicity = settings: mouse, in vivo, ip
Description: The test drugs were used in the form of a solution or suspension in a saline solution or a 0.3% carboxymethyl cellulose-containing saline solution.

[6] = system: Ehrlich ascites carcinoma cells; test: Effect on Ehrlich carcinoma (i): intraperitoneal inoculation, mean survival days; type: in vivo, ICR-strain mice; settings: Mus musculus, ip, read-out: T/C (mean survival days)
Experimental: (i) Ehrlich ascites carcinoma cells (1×10^6 cells/head) were inoculated intraperitoneally into ICR-strain mice (female, 6 to 7 weeks old, each group consisting of 5 or 4 mice), and after 24 hours, the […] The effect thereof was judged from the mean survival days.
The test drugs were used in the form of a solution or suspension in a saline solution or a 0.3% carboxymethyl cellulose-containing saline solution. [formula]

P-388 ascites cells [7] = test: Effect on P-388 leukemia (i): intraperitoneal inoculation, mean survival days; type: in vivo, BDF1-strain mice; settings: 100 mg/kg, once a day for 7 days
Experimental: as §2, with “P-388” for “L-1210”, “(1×10^6” for “(1×10^5”, “day for 7 days.” for “day.”, “solution. T/C was calculated in the same manner as in above b(i).” for “solution.”

L-1210 ascites cells [8] = test: Effect on L-1210 leukemia (ii): subcutaneous inoculation, mean survival days and tumor weight; type: in vivo, BDF1-strain mice; settings: oral; for T/C Tumor Weight: 9th day
Experimental: (ii) L-1210 ascites cells (1×10^6 cells/head) were inoculated subcutaneously into BDF1 -strain mice (male, 6 weeks old, each group consisting of 4 mice), and after 24 hours, the oral administration of a test drug was started, and effected once a day for […]. The effect thereof was judged from the mean survival days and the weight of the tumor on the 9th day.
The test drug was used in the form of a suspension in a 0.3% carboxymethyl cellulose-containing saline solution. T/C was calculated in the same manner as in above b(i) and b(ii).

[9] = system: Lewis lung carcinoma cells; test: Effect on Lewis lung carcinoma: subcutaneous inoculation, average tumor weight; type: in vivo, BDF1-strain mice; settings: oral, once a day for 7 days, 21st day
Experimental: Lewis lung carcinoma cells (1×10^6 cells/head) were inoculated subcutaneously at the right armpit region into BDF1 -strain mice (male, 6 weeks old, each group consisting of 5 mice) and after 24 hours, the oral administration of a test drug was started and effected once a day for 7 days. The effect thereof was judged from the average weight of tumor on the 21st day. The test drug was used in the form of a suspension in a 0.3% carboxymethyl cellulose-containing saline solution. T/C was calculated in the same manner as in above b(ii).

[10] = 100 mg/kg, orally, 7 administrations, 18th day
[11] = 100* mg/kg, orally, 7 administrations, 19th day, in dimethylsulfoxide-propylene glycol (1:1)

Row | SMILES | MIC (HeLa S3 cells) [µg/mL] | MIC (Ehrlich cells) [µg/mL] | T/C (mean tumor weight) [1] [%] | T/C (mean tumor weight) ([2]; 50 mg/kg, orally) [%] | T/C (mean tumor weight) ([2]; 50 mg/kg, subcutaneously) [%] | T/C (mean tumor weight) ([2]; 100 mg/kg, orally) [%] | T/C (mean survival days) ([3]; 10 mg/kg) [%] | Survival Ratio in Days Shown in Parenthesis ([3]; 10 mg/kg, 32 days) | T/C (mean survival days) ([3]; 20 mg/kg) [%] | Survival Ratio in Days Shown in Parenthesis ([3]; 20 mg/kg, 32 days) | T/C (mean survival days) (L-1210 ascites cells [4]; 50 mg/kg, 9 administrations) [%] | T/C (mean tumor weight) (B-16 melanoma cells; [10]) [%] | LD50 at 168 h (Acute toxicity) [mg/kg] | response vs control in vivo at 100 mg/kg ([6]; 168 h, once a day for 7 days) [%] | T/C (mean survival days) (L-1210 ascites cells [4]; 200 mg/kg, 3 administrations) [%] | T/C (mean tumor weight) (P-388 ascites cells [5]; 200 mg/kg) [%] | T/C (average tumor weight) ([9]; 100 mg/kg) [%] | T/C (average tumor weight) ([9]; 200 mg/kg) [%] | T/C (mean tumor weight) (B-16 melanoma cells; [11]) [%] | also measured
1 | Nc1ccc(Nc2ccc(CN3CCN(Cc4ccccc4)C(=O)C3=O)cc2)nc1 [Compound 4] | < 0.05 | < 0.05 | 56.9 | 82 | 15 | 65 | > 221 | 4/5 | > 221 | 4/5 | 164.3 | 58 | > 300 |  |  |  |  |  |  | T/C (mean survival days) (L-1210 ascites cells [4]; 100 mg/kg, 3 administrations): 161.9%; T/C (mean tumor weight) (P-388 ascites cells [5]; 50 mg/kg): 79%; T/C (mean tumor weight) (B-16 melanoma cells; 25 mg/kg, subcutaneously, 7 administrations, 19th day): 38%; T/C (mean tumor weight) (B-16 melanoma cells; 50 mg/kg, orally, 9 administrations, 21st day): 60%; T/C (mean tumor weight) (B-16 melanoma cells; 50* mg/kg, orally, 7 administrations, 19th day, in dimethylsulfoxide-propylene glycol (1:1)): 71%
2 | CCCCCCN1CCN(Cc2ccc(Nc3ncccn3)cc2)C(=O)C1=O [Compound 7] | 0.39 to 0.78 (≈ 1.02 to 2.04 µM) | 0.39 to 0.78 (≈ 1.02 to 2.04 µM) |  |  |  |  |  |  |  |  | 181 |  | > 1000 | > 207 | 159.5 |  |  |  |  | response vs control in vivo at 50 mg/kg ([6]; 168 h, 50 mg/kg, once a day for 7 days): > 187%; T/C (mean survival days) ([3]; 100 mg/kg): > 183.1%; Survival Ratio in Days Shown in Parenthesis ([3]; 100 mg/kg, 35 days): 3/4; T/C (mean survival days) (L-1210 ascites cells [4]; 100 mg/kg, 7 administrations): 168.7%; T/C (mean survival days) (P-388 ascites cells [7]): 166.3%
3 | O=C1C(=O)N(Cc2ccc(Nc3ncccn3)cc2)CCN1Cc1ccccc1 [Compound 13] | 0.1 (≈ 0.258 µM) | 0.1 (≈ 0.258 µM) | 32.4 |  | 54 | 48 |  |  |  |  | 240.5 | 62 | > 1000 | > 177 | 229 | 49 | 73.2 | 67.1 | 40 | T/C (mean tumor weight) ([2]; 200 mg/kg, orally): 26%; T/C (mean survival days) ([3]; 50 mg/kg): > 204%; Survival Ratio in Days Shown in Parenthesis ([3]; 50 mg/kg, 32 days): 4/5; T/C (mean survival days) (L-1210 ascites cells [4]; 100 mg/kg, 6 administrations): 150%; T/C Survival Days (L-1210 ascites cells [8]; 50 mg/kg): 120.0%; T/C Tumor Weight (L-1210 ascites cells [8]; 50 mg/kg): 156.6%; T/C Survival Days (L-1210 ascites cells [8]; 100 mg/kg): 194.4%; T/C Tumor Weight (L-1210 ascites cells [8]; 100 mg/kg): 2.6%; T/C Survival Days (L-1210 ascites cells [8]; 250 mg/kg): 127.8%; T/C Tumor Weight (L-1210 ascites cells [8]; 250 mg/kg): 0%; T/C (mean tumor weight) (P-388 ascites cells [5]; 60* mg/kg, solution in dimethylsulfoxide-propylene glycol-phosphate buffer (1:2:1)): 25%; T/C (mean tumor weight) (B-16 melanoma cells; 200 mg/kg, orally, 9 administrations, 21st day): 23%; T/C (mean tumor weight) (B-16 melanoma cells; 50* mg/kg, subcutaneously, 7 administrations, 19th day, in dimethylsulfoxide-propylene glycol (1:1)): 88%
4 | Nc1ccc(Nc2ccc(CN3CCN(Cc4ccccc4)C(=O)C3=O)cc2)nc1Cl [Compound 41] | < 0.05 | < 0.05 |  | 78 | 54 |  | > 193 | 1/5 | > 218 | 4/5 |  | 88 | > 200 |  |  | 67 | 65.9 | 43.4 | 43 | response vs control in vivo at 50 mg/kg ([6]; 96 h, 50* mg/kg, once a day for 4 days): 195%; T/C (mean survival days) (L-1210 ascites cells [4]; 20 mg/kg, 7 administrations): 236%; T/C (mean tumor weight) (B-16 melanoma cells; 50 mg/kg, subcutaneously, 3 administrations, 19th day): 37%
